Experimental data published in the NIST ThermoML archive (doi:10.1016/j.jct.2017.03.006).

Assay: xn = mol fraction of the nth substance listed
Conditions: Liquid; for mass density: 293.15 K, Vibrating tube method; for viscosity: Concentric cylinders viscometry

Cc1ccc(C)c(C)c1 [1,2,4-trimethylbenzene] + CCC(C)O
mass density [kg/m3]
Conditions	x2 = 0	x2 = 0.1	x2 = 0.1989	x2 = 0.3011	x2 = 0.4002	x2 = 0.5001	x2 = 0.5997	x2 = 0.6999	x2 = 0.7999	x2 = 0.9
100 kPa	–	–	863.6	857.4	851.4	845	838.2	831.1	823.6	815.3
1000 kPa	875.7	869.9	864.2	858	852	845.6	838.9	831.8	824.3	816
2000 kPa	876.3	870.6	864.9	858.8	852.8	846.4	839.7	832.6	825	816.8
5000 kPa	878.2	872.7	867	860.9	854.9	848.5	841.9	834.8	827.3	819.1
10000 kPa	881.4	875.9	870.3	864.2	858.3	852	845.4	838.3	830.9	822.7
15000 kPa	884.4	879	873.4	867.5	861.6	855.3	848.7	841.7	834.3	826.1
20000 kPa	887.3	882.1	876.5	870.6	864.7	858.5	851.9	845	837.6	829.5
30000 kPa	892.9	887.9	882.4	876.6	870.8	864.6	858.1	851.2	843.9	835.8
40000 kPa	898.2	893.4	888	882.2	876.5	870.4	863.9	857	849.7	841.7
50000 kPa	903.2	898.6	893.2	887.5	881.8	875.7	869.3	862.5	855.2	847.2
60000 kPa	908	903.6	898.3	892.5	886.9	880.9	874.4	867.7	860.4	852.5
70000 kPa	912.6	908.3	903	897.3	891.8	885.8	879.4	872.7	865.5	857.5
80000 kPa	916.9	912.9	907.6	902	896.4	890.4	884	877.3	870.1	862.3
90000 kPa	921.1	917.2	912	906.4	900.9	894.9	888.6	881.9	874.8	866.8
100000 kPa	925.1	921.4	916.2	910.6	905.1	899.2	892.9	886.2	879	871.2
110000 kPa	929	925.4	920.3	914.8	909.2	903.4	897.1	890.4	883.3	875.4
120000 kPa	932.8	929.3	924.2	918.7	913.2	907.4	901.2	894.4	887.3	879.5
130000 kPa	936.4	933.1	928	922.6	917.1	911.3	905.1	898.4	891.2	883.4
140000 kPa	939.9	936.7	931.6	926	920.5	914.9	908.7	901.9	894.7	887

viscosity [mPa·s], 100 kPa
Conditions	x2 = 0	x2 = 0.1001	x2 = 0.2261	x2 = 0.3	x2 = 0.3966	x2 = 0.5298	x2 = 0.6001	x2 = 0.7001	x2 = 0.7997	x2 = 0.9001
303.15 K	0.779	0.774	0.786	0.802	0.858	0.923	1.01	1.16	1.4	1.8
313.15 K	0.692	0.687	0.689	0.698	0.74	–	–	–	–	–
